Measured values from patent US12186413B2, “Non-cellular root canal filler and non-cellular dental tissue regeneration promotion kit” (KOWA COMPANY, LTD., priority 2019, dated 2025).
Where two headings read alike, the source gives them in different places.

Assays:
dental pulp [1] = test: Dental pulp regeneration after pulpectomy in young dogs with non-cellular root canal filler; type: in vivo, dog; details: for regeneration of dental pulp-like tissues (H-E staining) / dental pulp regeneration (H-E staining, morphological observation) / infiltration / internal absorption of inflammatory cells: trypsin pretreatment; for dental pulp regeneration (H-E staining, morphological observation) / infiltration / internal absorption of inflammatory cells: 12-month-old dogs; for dental pulp regeneration (H-E staining, morphological observation): 1.25 μg compound B or 0.83 μg SB328437 + 150 ng G-CSF in 20 μl collagen; for infiltration / internal absorption of inflammatory cells: filler with G-CSF and collagen; for amount of the regenerated dental pulp (ratio of regenerated dental pulp area to dental pulp cavity area): compound B filler compared with SB328437 filler
Method: After general anesthesia, pulpectomy was performed for maxillary and mandibular right and left anterior teeth in young (12-month-old) dogs. The openings were enlarged to the apex of the root with #55, then washed alternately with a 5% sodium hypochlorite solution and a 3% hydrogen peroxide solution, further washed with saline, dried, and then temporarily sealed with a resin completely. At 3 to 12 days after the pulpectomy, the temporary seals were removed, and the openings were washed alternately and washed with saline again. Then, the root canals were filled with 3% EDTA (Smear Clean, Nippon Shika Yakuhin Co., Ltd.), treated for 2 minutes, further washed with saline, and dried. Then, the root canals were pretreated by the application of trypsin preparation (5 mg of Francetin T powder (2,500 USP crystal trypsin per 10 mg, Mochida Pharmaceutical Co., Ltd.)/ml of 0.5% nanobubble water (prepared with Foamest 8 (NAC Corp.); see Koichiro Iohara and Misako Nakajima “Enhanced Delivery of Antibacterial Nanopolymers with Nanobubbles for the Complete Disinfection of the Root Canal System in a Canine Model of Intractable Periapical Disease”, The Japanese Journal Of Conservative Dentistry, Vol. 63, No. 1, p. 73-82) for 10 minutes, and then washed with saline. Subsequently, a CCR3 antagonist (1.25 μg of compound B or 0.83 μg of SB328437 (Tocris Bioscience)) as a regeneration promoting compound and 150 ng of G-CSF (Neutrogin, Chugai Pharmaceutical Co., Ltd.) as a chemotactic factor were added to 20 μl of extracellular matrix collagen (Koken Atelocollagen Implant, Koken Co., Ltd.) to prepare a non-cellular root canal filler, which was then filled into the root canals. Then, a gelatin sponge for hemostasis (Spongel, Astellas Pharma Inc.) was placed thereon, and the cavities were completely sealed with glass ionomer cement and a photopolymerizable resin. Then, 28 days after transplantation, the teeth were extracted, and 5 μm paraffin sections were prepared on longitudinal sections according to a standard method, stained with H-E, and then morphologically observed. The amount of the regenerated dental pulp was evaluated by measuring the ratio of the area of regenerated dental pulp to the area of a dental pulp cavity as to four sections per sample, and calculating the mean of four samples. Angiogenesis was evaluated by staining day 28 specimens with Fluorescein labeled Griffonia simplicifolia (Bandeiraea simplicifolia) Lectin I (GSL I, BSL I) and Fluorescein labeled Galanthus nivalis (Snowdrop) Lectin (GNL) (Vector Laboratories) (20 μg/ml) for 15 minutes, followed by comparative examination. Neurite extension was evaluated by immunostaining day-28 specimens with an anti-PGP9.5 antibody (UltraClone, 1:10,000), followed by comparative examination.
After general anesthesia, pulpectomy was performed for maxillary and mandibular right and left anterior teeth in young (11-month-old) dogs. The openings were enlarged to the apex of the root with #55, then washed alternately with a 5% sodium hypochlorite solution and a 3% hydrogen peroxide solution, and further washed with saline. The root canals were thoroughly dried with a paper point and temporarily sealed with cement and a resin completely after hemostasis. Then, 8 days after the pulpectomy, the temporary seals were removed, and the openings were washed alternately and washed with saline again. Then, the root canals were filled with 3% EDTA (Smear Clean, Nippon Shika Yakuhin Co., Ltd.), treated for 2 minutes, further washed with saline, and dried. Then, the root canals were pretreated by the application of a trypsin preparation (5 mg of Francetin T powder (2,500 USP crystal trypsin per 10 mg), Mochida Pharmaceutical Co., Ltd.)/ml of 0.5% nanobubble water (prepared with Foamest 8 (NAC Corp.); as described in Example 1)) for 10 minutes, and then washed with saline. […]

dental pulp stem cells = details: dentin surfaces treated with trypsin in vitro; cited from earlier work
dental pulp [2] = details: cited from earlier work
[3] = Example 3, compound B filler, 28 days
[4] = Example 3, with and without trypsin pretreatment, 28 days

CS(=O)(=O)Nc1cccc(CNCCN2Cc3ccc(F)cc3CC2Cc2ccc(F)cc2)c1.O=C(O)CC(O)(CC(=O)O)C(=O)O (single isomer, unassigned; (+)) [compound C, (+)-N-[3-(methanesulfonylamino)benzyl]-2-[6-fluoro-3-(4-fluorobenzyl)-3,4-dihydroisoquinolin-2(1H)-yl]ethanamine monocitrate]
regeneration of dental pulp-like tissues (H-E staining) (dental pulp [1]; Example 4, 11-month-old dogs, 1.2 μg compound C + 150 ng G-CSF in collagen, 28 days): found to sufficiently regenerate dental pulp-like tissues | area of the dentin (ratio to area of tooth) versus filler containing no compound C (dental pulp [1]; Example 4, 28 days): tended to increase the area of the dentin | density of dentin cells (within 1 mm from root canal side wall) versus filler containing no compound C (dental pulp [1]; Example 4, 28 days): increased the density of dentin cells

trypsin
adhesion of the cells (dental pulp stem cells): increased the adhesion of the cells | differentiation into odontoblasts (dental pulp stem cells): exhibited enhancement in differentiation into odontoblasts | dental pulp regeneration (dental pulp [2]; middle-aged and elderly dogs, with dental pulp stem cell transplantation): promoted | dental pulp regeneration (dental pulp [2]; without the transplantation of dental pulp stem cells): rarely observed | dental pulp regeneration (dental pulp [2]; young dogs, with dental pulp stem cell transplantation): not found to be effective

CC(C)Nc1ccc(CNCCN2Cc3ccc(F)cc3CC2Cc2ccc(F)cc2)cc1.O=C(O)/C=C/C(=O)O (single isomer, unassigned; (+)) [compound B, (+)-4-[[2-[6-fluoro-3-(4-fluorobenzyl)-3,4-dihydroisoquinolin-2(1H)-yl]ethylamino]methyl]-N-isopropylaniline monofumarate]
dental pulp regeneration (H-E staining, morphological observation) (dental pulp [1]; Example 1, 28 days): found to cause dental pulp regeneration of loose connective tissues rich in blood vessels | infiltration / internal absorption of inflammatory cells (dental pulp [1]; Example 1, 28 days): neither the infiltration nor internal absorption of inflammatory cells was observed | amount of the regenerated dental pulp (ratio of regenerated dental pulp area to dental pulp cavity area) (dental pulp [1]; Example 1, 28 days): No statistically significant difference | angiogenesis (lectin staining) (dental pulp [1]; Example 1, day 28 specimens): confirmed | neurite extension (PGP9.5 immunostaining) (dental pulp [1]; Example 1, day 28 specimens): confirmed | odontoblast-like cell adhesion to dentin side wall / dentin-like hard tissue formation (dental pulp [1]; Example 1, day 28 specimens): odontoblast-like cells adhere to the side wall of the dentin to form dentin-like hard tissues | regeneration of dental pulp-like tissues (H-E staining) (dental pulp [1]; Example 2, 11-month-old dogs, 1.25 μg compound B + 150 ng G-CSF in collagen, 28 days): found to sufficiently regenerate dental pulp-like tissues | amount of the regenerated dental pulp versus filler containing no compound B (dental pulp [1]; Example 2, 28 days): Statistically significant difference | angiogenesis (BS-1 lectin staining) versus filler containing no compound B (dental pulp [1]; Example 2, 28 days): similar | neurite extension (PGP9.5 immunostaining) versus filler containing no compound B (dental pulp [1]; Example 2, 28 days): similar | regeneration of dental pulp tissues (H-E staining) (dental pulp [1]; Example 3, 11-month-old dogs, with or without trypsin pretreatment, 1.25 μg compound B + 150 ng G-CSF in collagen, 28 days): regeneration of dental pulp tissues was observed, regardless of whether trypsin pretreatment was performed or not | amount of regenerated dental pulp, with versus without trypsin pretreatment (dental pulp [1]; [3]): tended to slightly increase the amount of regenerated dental pulp, albeit with no statistically significant difference | odontoblast-like cell adhesion to dentin side wall and dentin-like hard tissue amount, with versus without trypsin pretreatment (dental pulp [1]; [3]): tended to allow more odontoblast-like cells to adhere to the side wall of the dentin and form dentin-like hard tissues in a slightly higher amount | angiogenesis (BS-1 lectin staining) (dental pulp [1]; [4]): similarly observed in both these cases | neurite extension (PGP9.5 immunostaining) (dental pulp [1]; [4]): similarly observed in both these cases | dental pulp regeneration, odontoblast-like cell adhesion and dentin-like hard tissue formation (dental pulp [1]; Example 3, without trypsin pretreatment, 28 days): regenerates the dental pulp with angiogenesis and neurite extension

COC(=O)[C@H](Cc1ccc([N+](=O)[O-])cc1)NC(=O)c1cccc2ccccc12 [SB328437, reference compound]
dental pulp regeneration (H-E staining, morphological observation) (dental pulp [1]; Example 1, 28 days): found to cause dental pulp regeneration of loose connective tissues rich in blood vessels | infiltration / internal absorption of inflammatory cells (dental pulp [1]; Example 1, 28 days): neither the infiltration nor internal absorption of inflammatory cells was observed | amount of the regenerated dental pulp (ratio of regenerated dental pulp area to dental pulp cavity area) (dental pulp [1]; Example 1, 28 days): No statistically significant difference | angiogenesis (lectin staining) (dental pulp [1]; Example 1, day 28 specimens): confirmed | neurite extension (PGP9.5 immunostaining) (dental pulp [1]; Example 1, day 28 specimens): confirmed | odontoblast-like cell adhesion to dentin side wall / dentin-like hard tissue formation (dental pulp [1]; Example 1, day 28 specimens): odontoblast-like cells adhere to the side wall of the dentin to form dentin-like hard tissues
